The record followed here is patent US20100029689A1, “PHOSPHODIESTERASE 4 INHIBITORS” (MEMORY PHARMACEUTICALS CORPORATION, priority 2008, published 2010).

Broadly, the IC50 is the concentration that inhibits the measured activity by half. What is called melting point is the temperature of the solid-liquid transition.

Each structure is given as a SMILES string.

One data set deals with T1, hPDE-4D6 (Homo sapiens, UniProt Q08499).
T1 construct: made in house; host or cells: Sf9 insect cells (baculovirus)
T1 sequence (Q08499 1-518 isoform Q08499-8): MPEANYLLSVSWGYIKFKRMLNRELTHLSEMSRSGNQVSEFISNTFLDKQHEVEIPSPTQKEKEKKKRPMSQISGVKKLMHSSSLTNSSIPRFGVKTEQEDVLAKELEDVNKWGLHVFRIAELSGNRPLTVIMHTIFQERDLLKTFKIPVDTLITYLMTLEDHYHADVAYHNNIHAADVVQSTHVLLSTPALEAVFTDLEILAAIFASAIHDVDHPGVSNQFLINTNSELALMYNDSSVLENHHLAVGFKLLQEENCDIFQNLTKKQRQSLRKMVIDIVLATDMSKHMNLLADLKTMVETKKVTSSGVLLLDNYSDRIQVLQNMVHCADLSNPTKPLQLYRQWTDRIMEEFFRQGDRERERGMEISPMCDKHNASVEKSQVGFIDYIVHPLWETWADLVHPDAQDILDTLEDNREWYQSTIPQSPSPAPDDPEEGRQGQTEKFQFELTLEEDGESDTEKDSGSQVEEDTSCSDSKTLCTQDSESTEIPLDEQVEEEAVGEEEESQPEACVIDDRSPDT
As to the kind of experiment: In vitro measurement of type 4 phosphodiesterase inhibition activity (hPDE-4D6, [3H]cAMP/alumina column assay). The class given is biochemical. The note with it: recombinant hPDE-4D6 from Sf9 cell lysate, 3 uM cAMP, 12 min, room temperature; read-out: PDE4D6 IC50. As for the experimental part: Human PDE4 was obtained from baculovirus-infected Sf9 cells that expressed the recombinant enzyme. The cDNA encoding hPDE-4D6 was subcloned into a baculovirus vector.
Insect cells (Sf9) were infected with the baculovirus and cells were cultured until protein was expressed. The baculovirus-infected cells were lysed and the lysate was used as source of hPDE-4D6 enzyme. The enzyme was partially purified using a DEAE ion exchange chromatography. This procedure can be repeated using cDNA encoding other PDE-4 enzymes.
Type 4 phosphodiesterases convert cyclic adenosine monophosphate (cAMP) to 5′-adenosine monophosphate (5′-AMP). Nucleotidase converts 5′-AMP to adenosine. Therefore the combined activity of PDE4 and nucleotidase converts cAMP to adenosine. Adenosine is readily separated from cAMP by neutral alumina columns. Phosphodiesterase inhibitors block the conversion of cAMP to adenosine in this assay; consequently, PDE4 inhibitors cause a decrease in adenosine.
Cell lysates (40 ul) expressing hPDE-4D6 were combined with 50 ul of assay mix and 10 μl of inhibitors and incubated for 12 min at room temperature. Final concentrations of assay components were: 0.4 ug enzyme, 10 mM Tris-HCl (pH 7.5), 1 mM MgCl2, 3 uM cAMP, 0.002 U 5′-nucleotidase, and 3×10^4 cpm of [3H]cAMP. The reaction was stopped by adding 100 μl of boiling 5mN HCl. An aliquot of 75 μl of reaction mixture was transferred from each well to alumina columns (Multiplate; Millipore). Labeled adenosine was eluted into an OptiPlate by spinning at 2000 rpm for 2 min; 150 μl per well of scintillation fluid was added to the OptiPlate. The plate was sealed, shaken for about 30 min, and cpm of [^3H]adenosine was determined using a Wallac Triflux®.
All test compounds are dissolved in 100% DMSO and diluted into the assay such that the final concentration of DMSO is 0.1%.
A decrease in adenosine concentration is indicative of inhibition of PDE activity. […] Nonlinear regression software (Assay Explorer@) was used to estimate pIC50 values.
Take `CCOc1cc(N(Cc2cccnc2)c2ccc(C(=O)O)cc2)ccc1OC(F)F` [Example 14]: the IC50 worked out at 2.54 nM.
Still for that read-out and setting: with `COc1ccc(N(Cc2cccnn2)c2ccc(C(=O)O)cc2)cc1OC1CCCC1` [Example 47] the figure was 128 nM; with `O=C(O)c1ccc(N(Cc2cncs2)c2ccc(OC(F)F)c(OC(F)F)c2)cc1` [Example 59], 5.69 nM.
Turning to `COc1ccc(N(Cc2cncs2)c2ccc(C(=O)O)cc2)cc1OCC1CC1` [Example 72], the IC50 came to 25.1 nM.
For `O=C(O)c1ccc(N(Cc2cncnc2)c2ccc(OC(F)F)c(OC(F)F)c2)cc1` [Example 80], the IC50 was determined as 6.17 nM.
On the same count and under the same terms, next, `COc1ccc(N(Cc2cncs2)c2ccc(S(C)(=O)=O)cc2)cc1O[C@@H]1CCOC1` [Example 111]: 29 nM; `COc1cc(N(Cc2cncs2)c2cccc(C(=O)O)c2)ccc1OC(F)F` [Example 116]: 7 nM.
The same measure, in the same setting: with `COc1cc(N(Cc2cccnc2)c2ccc(C(=O)O)cc2)ccc1OC(F)F` [Example 124] the figure was 11.2 nM.
`CCOc1cc(N(Cc2cncs2)c2ccc(C(=O)O)cc2)ccc1OC` [Example 130]: the IC50 stood at 8.6 nM.
Still for that read-out and setting: with `COc1ccc(N(Cc2cncs2)c2ccc(C(=O)O)cc2)cc1OC(C)C` [Example 131] the figure was 17.3 nM.
As for `O=C(O)Cc1ccc(N(Cc2cncnc2)c2ccc(OC(F)F)c(OC(F)F)c2)cc1` [Example 137], the IC50 amounted to 139 nM.
`COc1ccc(N(Cc2cncs2)c2ccc(C(=O)O)cc2)cc1OC` [Example 138]: the IC50 was 61 nM.
Still for that read-out and setting: with `O=C(O)Cc1cccc(N(Cc2cncnc2)c2ccc(OC(F)F)c(OC(F)F)c2)c1` [Example 139] the figure was 53 nM; with `O=C(O)c1ccc(N(Cc2cnco2)c2ccc(OC(F)F)c(OC(F)F)c2)cc1` [Example 141], 27 nM; with `O=C(O)c1ccc(N(Cc2cnccn2)c2ccc(OC(F)F)c(OC(F)F)c2)cc1` [Example 142], 289 nM.
Same read-out and setting: with `CCOc1cc(N(Cc2cncnc2)c2ccc(C(=O)O)cc2)ccc1OC(F)F` [Example 143] the figure was 7.5 nM; with `O=C(O)c1ccc(N(Cc2cnco2)c2ccc(OC(F)F)c(OC3CCC3)c2)cc1` [Example 182], 3.8 nM; with `COc1ccc(N(Cc2cnco2)c2ccc(C(=O)O)cc2)cc1OC1CC1` [Example 189], 2.3 nM.
Same read-out and setting: with `CCOc1cc(N(Cc2cocn2)c2ccc(C(=O)O)cc2)ccc1OC(F)F` [Example 190] the figure was 20 nM; with `CCOc1cc(N(Cc2cnco2)c2ccc(C(=O)O)cc2)ccc1OC(F)(F)F` [Example 217], 12 nM; with `COc1ccc(N(Cc2cncnc2)c2cccc(C(=O)O)c2)cc1OC1CC1` [Example 218], 1.08 nM.
Consider `CCOc1cc(N(Cc2cnc(C)s2)c2ccc(C(=O)O)cc2)ccc1OC(F)F` [Example 225], for which the IC50 turned out to be 4.38 nM.
Regarding `COc1ccc(N(Cc2cnco2)c2ccc(C(=O)O)cc2)cc1OC(F)(F)F` [Example 232], the IC50 is 6.94 nM.
Consider `CCOc1cc(N(Cc2cnns2)c2ccc(C(=O)O)cc2)ccc1OC(F)F` [Example 281], for which the IC50 is 0.16 nM.
On to `CCOc1cc(Nc2ccc(C(=O)O)cc2)ccc1OC(F)F` [Example 294], for which the IC50 amounted to 34.9 nM.
Take `O=C(O)c1ccc(Nc2ccc(OC(F)F)c(OC(F)F)c2)cc1` [Example 295]: the IC50 amounted to 108 nM.

The next data set concerns rats. As to the kind of experiment: Passive avoidance in rats, in vivo test for learning and memory. More on the design: species or system rat. The note with it: male Sprague-Dawley rats, 0.1 mg/kg, 24 hours after electric shock, compared to vehicle (p<0.001). Here is the method:
The test was performed as previously described (Zhang, H.-T., Crissman, A. M., Dorairaj, N. R., Chandler, L. J., and O'Donnell, J. M., Neuropsychopharmacology, 2000, 23, 198-204.). The apparatus (Model E10-16SC, Coulboum Instruments, Allentown, Pa.) consisted of a two-compartment chamber with an illuminated compartment connected to a darkened compartment by a guillotine door. The floor of the darkened compartment consisted of stainless steel rods through which an electric foot-shock could be delivered from a constant current source. All experimental groups were first habituated to the apparatus the day before the start of the experiment. During the training, the rat (Male Sprague-Dawley (Harlan) weighing 250 to 350 g) was placed in the illuminated compartment facing away from the closed guillotine door for 1 minute before the door was raised. The latency for entering the darkened compartment was recorded. After the rat entered the darkened compartment, the door was closed and a 0.5 mA electric shock was administered for 3 seconds. […] The latency for entering the darkened compartment was recorded for up to 180 seconds, at which time the trial was terminated.
(§1) All data were analyzed by analyses of variance (ANOVA); individual comparisons were made using Kewman-Keuls tests. […]
For the compound `C[C@]12N[C@H](Cc3ccccc31)c1ccccc12` [MK-801], the “latency for entering the darkened compartment (retention test)” value is “markedly reduced this latency”.

A further data set relates to rats. As to the kind of experiment: Radial arm maze task in rats, in vivo test for learning and memory. On the set-up: species or system rat. The note with it: male Sprague-Dawley rats, 0.1 mg/kg, i.p., compared to control (p<0.01). Here is the method: The test was performed as previously described (Zhang, H.-T., Crissman, A. M., Dorairaj, N. R., Chandler, L. J., and O'Donnell, J. M., Neuropsychopharmacology, 2000, 23, 198-204.). Five days after initial housing, rats (male Sprague-Dawley (Harlan) weighing 250 to 350 g) were placed in the eight-arm radial maze (each arm was 60×10×12 cm high; the maze was elevated 70 cm above the floor) for acclimation for two days. Rats were then placed individually in the center of the maze for 5 minutes with food pellets placed close to the food wells, and then, the next day, in the wells at the end of the arms; 2 sessions a day were conducted. Next, four randomly selected arms were then baited with one pellet of food each. The rat was restricted to the center platform (26 cm in diameter) for 15 seconds and then allowed to move freely throughout the maze until it collected all pellets of food or 10 minutes passed, whichever came first. Four parameters were recorded: 1) working memory errors, i.e., entries into baited arms that had already been visited during the same trial; 2) reference memory errors, i.e., entries into unbaited arms; 3) total arm entries; and 4) the test duration (seconds), i.e., the time spent in the collection of all the pellets in the maze. […]
as §1
For `C[C@]12N[C@H](Cc3ccccc31)c1ccccc12` [MK-801], the “frequencies of working and reference memory errors” value was “increased the frequencies of both working and reference memory errors”.

Test system in the next data set: not given
Experiment: not given
Details: not given
Take `COc1cc(N(Cc2cccnc2)c2ccc(C(=O)O)cc2)ccc1OC(F)F` [Example 14, 4-[(4-Difluoromethoxy-3-methoxy-phenyl)-pyridin-3-ylmethyl-amino]-benzoic acid]: the melting point was 183.7 to 184.9 °C.
